Data from patent US8212010B2, “Sphingosine 1-phosphate antagonism” (Expression Drug Designs, LLC, priority 2008, dated 2012).

How the values were obtained:
S1P receptor = conditions: with the exception of S1P2; by stable internalization; cited from earlier work
tumor transplant model = conditions: in vivo; cited from earlier work
MCF-7 cells = experiment: Cell death by annexin V assay; type: cell-based, human
Procedure: Quantification of cell death can be performed with an annexin V assay. Serum-starved cells can be treated overnight with […] tamoxifen in the presence or absence of 500 nM S1P, then collected by trypsinization, and labeled with Alexafluor 488-conjugated annexin V (Invitrogen Corp, Carlsbad, Calif.) per manufacturer's protocol. Cells can be counted on a FACSAria cell sorting system and analyzed with FACSDiva software (BD Biosciences, San Jose, Calif.). […] This effect is attenuated by co-administration of 500 nM S1P.

MDA-MB-231 cells [1] = experiment: Tamoxifen toxicity, cell viability by phase contrast microscopy; type: cell-based, human
Procedure: The experiment can be performed first without a S1P antagonist. MDA-MB-231 cells are cultured under standard conditions in […] supplemented with 10% fetal bovine serum and glutamate. Cells are grown in the absence of serum for 24 hours prior to experimental manipulation. Tamoxifen (Tam) and S1P are added to the media at the indicated concentrations for the indicated times at the appropriate concentrations (e.g., 3 μM Tam, 10 μM Tam, and 20 μM Tam) for appropriate times (e.g., 6 hrs. and 24 hrs.). Cell viability is observed by direct illumination with an inverted phase contrast microscope.
The tamoxifen toxicity experiment can be performed using an antagonist of S1P that binds to S1P3. For example, the antiserum described in Example 1 can be employed. MDA-MB-231 cells are cultured under standard conditions in Dulbecco's Minimal Essential Media supplemented with 10% fetal bovine serum and glutamate. Serum concentration is reduced to 1% for 24 hours prior to experimental manipulation. Tamoxifen and S1P are added to the media at the appropriate concentrations (e.g., 0 μM Tam, 10 μM Tam, and 20 μM Tam) for appropriate times (e.g., 6 hrs. and 24 hrs.). Cell viability is observed by direct illumination with an inverted phase contrast microscope.

[2] = tested on: MDA-MB-231 breast cancer cells; experiment: S1P-induced cytoskeletal rearrangement / cell rounding; type: cell-based, human
Procedure: MDA-MB-231 breast cancer cells are cultured on collagen-coated coverslips in the presence of 10% FBS using standard techniques. Because S1P is present at high concentrations in serum, BCCs are “serum-starved” in Dulbecco's modified Eagle medium (DMEM) for 12 hours prior to experimental manipulation. S1P is solubilized with bovine serum albumin (BSA) carrier and administered at a final concentration of 1 nM to 1 μM. Coverslips are collected at representative time points such as 10 minutes, 1 hr., 2 hrs., 4 hrs., and 6 hrs., fixed with 4% paraformaldehyde, and stained with rhodamine-conjugated phalloidin to label cytoskeletal actin.
The cell rounding experiment can be performed using an antagonist of S1P that binds to S1P3. […] Serum-starved MDA-MB-231 cells are incubated with preimmune serum or S1P3-reactive antiserum for 15 minutes prior to a 30-minute exposure to 10 nM S1P, then evaluated for response both in % cells responding and average cell area.
MDA-MB-231 cells are grown under standard culture conditions and serum starved for 24 hours prior to experimental manipulation. […] 30 minutes after S1P administration, cells are fixed with 4% paraformaldehyde, stained with rhodamine-conjugated phalloidin, and visualized with fluorescence microscopy. Rounded cells are counted by an experimenter blinded to the identity of the sample. Cell area is determined by quantification with imageJ software.

MDA-MB-231 cells [3] = experiment: Cell motility, modified Boyden's chamber assay; type: cell-based, human; conditions: 1 μM S1P; two hour time point
Procedure: Cell motility is determined using a modified Boyden's chamber assay. MDA-MB-231 cells are introduced into the upper wells of collagen-coated chambers in serum-free DMEM and incubated for 30 minutes before the addition of either 1 μM S1P in BSA or BSA alone. At the indicated times, wells are isolated and fixed with 4% paraformaldehyde before non-migrated cells in the upper well are removed with a cotton swab. Membranes are then stained with DAPI to visualize individual migrated cells on the bottom of the membranes. Results shown are the averages of three independent experiments. Determination of the effect of S1P3 blocking antibodies on the migration of cancer cells can be performed as follows. The effect of S1P3 blocking antibodies is determined using a modified Boyden chamber assay as described above. In this case, an appropriate cell line (such as […]) is seeded into the upper chamber of the transwell and pre-treated with a blocking antibody or control antibody. […] Cells are then fixed and counted as described above. The anti-migratory effect of the blocking antibody is determined by comparing the number of migrated cells in the presence of the antibody to the number of migrated cells in the presence of an appropriate control antibody under the same stimulatory conditions.

## CCCCCCCCc1ccc(CCC(N)(CO)CO)cc1 [FTY720]
S1P receptor
  inhibition of S1P receptors: effectively inhibit four of the five known receptors
Tumor transplant model
  effect on angiogenesis and tumor growth: inhibit angiogenesis and subsequent growth

## CC/C(=C(\c1ccccc1)c1ccc(OCCN(C)C)cc1)c1ccccc1 [Tamoxifen]
MCF-7 cells; overnight treatment of MCF-7 cells
  annexin V binding (apoptotic cell death): increase in annexin V binding
MDA-MB-231 cells [1]; 1% FBS, 6 hours, 10 μM Tam
  cell viability: appear normal
MDA-MB-231 cells [1]; 1% FBS, 6 hours, 20 μM Tam
  cell viability: begin to show evidence of cell death
MDA-MB-231 cells [1]; 24 hours, 10 μM Tam, control conditions
  cell viability: most cells remain healthy
MDA-MB-231 cells [1]; serum-free, 6 hours, 10 μM tamoxifen
  cell viability: only a few viable cells remain
MDA-MB-231 cells [1]; serum-free, 6 hours, 20 μM tamoxifen
  cell viability: all cells are dead/dying
MDA-MB-231 cells [1]; serum-free, 24 hour, 3 μM tamoxifen
  cell viability: most control cells are lost
MDA-MB-231 cells [1]; serum-free, 24 hour, 10 μM tamoxifen
  cell viability: cell death is complete

## CCCCCCCCCCCCC/C=C/[C@@H](O)[C@@H](N)COP(=O)(O)O [S1P, Sphingosine 1-phosphate]
MCF-7 cells; co-administration of 500 nM S1P
  effect on tamoxifen-induced annexin V binding: attenuated
MDA-MB-231 cells [1]; serum-free, 6 hours, media supplemented with 1 μM S1P
  cell viability under tamoxifen with S1P: many viable cells remain
MDA-MB-231 cells [1]; serum-free, 24 hour, addition of S1P
  cell viability under tamoxifen with S1P: markedly improves survival
[2]; 1 nM S1P
  cell shape change: minor cell shape changes
[2]; 10 nM S1P
  cell shape change: dramatic cell rounding
MDA-MB-231 cells [3]
  increase in migrated cells compared to vehicle control: nearly two-fold increase
